Key:
[1] = test system: MEFs; assay: ROS generation by FACS using DHC in MEFs; type: cell-based, mouse
Method: (§1) ROS generation was measured using oxidized, green-fluorescent dihydrocalcein acetoxymethylester (DHC-AM) (Life Technologies) and flow cytometry. Single-cell suspensions of MEFs were prepared and ROS was assessed with 5 μM DHC-AM staining in culture medium for 30 minutes (A. Rohnstock et al., (2007) Toxicol in Vitro 21, 1552-1562). 25 nM of cationic cell permeant dye tetramethylrhodamine ethylester (TMRE; Life Technologies) (R. C. Scaduto, Jr. et al., (1999), Biophysical journal 76, 469-477) were used to measure ΔΨm. Additionally, MitoSox Red and MitoTracker Deep Red (Life Technologies) were used to measure mitochondrial ROS and mitochondrial mass, respectively. Flow cytometry was carried out on an LSRII (BD Biosciences), and FlowJo software (Tree Star) was used for analysis.

[2] = test system: MEFs; assay: Mitochondrial transmembrane potential (ΔΨm) by FACS using TMRE in MEFs; type: cell-based, mouse
Method: as §1

[3] = test system: Drp1; assay: Phosphorylated Drp1 (Drp1 616p) at purified mitochondria, densitometry normalized to Cox IV; type: cell-based; conditions: 5′-ppp-RNA 1 μg/ml or GOx (FIG. 14A-B)
Method: To activate MAVS commercially available 5′-ppp-RNA was used at a concentration of 1 μg/ml, which activates RIG-I helicase. As an alternative GOx was used as previously described [Szeto, H. H., Br J Pharmacol, 2014. 171(8): p. 2029-50]. Mitochondria were purified by anti-Tom22 magnetic beads as previously described [Perl, A., et al., Int Rev Immunol, 2004. 23(3-4): p. 293-313]. Changes in the level of Drp1^616p at mitochondria were determined by densitometry, which was normalized to the level of Cox IV (FIG. 14A-B).

[4] = test system: MEFs; assay: Oxygen consumption rate (OCR), Seahorse XF-24 extracellular flux analyzer, MEFs; type: cell-based, mouse; conditions: MAVS-WT MEFs (FIG. 1I, J)
Method: Real-time analysis of OCR and ECAR was performed with an XF-24 Extracellular Flux Analyzer (Seahorse Bioscience). Metabolic profiles were measured under basal conditions in non-buffered DMEM (Sigma) containing 25 mM glucose, 2 mM L glutamine, and 1 mM sodium pyruvate, in response to 1 μM oligomycin, 0.5 μM FCCP, and 1 μM rotenone/1 μM antimycin A (M. B. de Moura et al., (2014) Methods in molecular biology 1105, 589-602). Total ATP was measured with the ATP Lite Kit (Perkin Elmer), and the ATP/ADP ratio was determined using the bioluminescence ADP/ATP Ratio Assay Kit from Sigma.

[5] = test system: MAVS; assay: MAVS expression and oligomerization in the mitochondrial fraction of BMDCs treated with free dye; type: cell-based, mouse; conditions: increasing concentrations of free Alx488 dye (FIG. 7G)
[6] = test system: MEFs; assay: IFN-I and IL-6 cytokine secretion by ELISA in MEF culture supernatants; type: cell-based, mouse; conditions: MAVS-WT MEFs
Method: ELISA was used to measure cytokine concentration in supernatant from cultured MEFs and BMDCs, and in sera of SLE patients and healthy control subjects. For assays, samples were centrifuged and IFN-β and IL-6 levels were measured in triplicate using murine or human ELISA kits according to the manufacturer's instructions. (PBL Biosciences). The fold change in IFN-I or IL-6 cells was calculated by directly comparing mock versus virus or chemical inducer of ROS.

[7] = test system: MEFs; assay: Cell death by FACS using live-dead stain; type: cell-based, mouse; conditions: MitoPQ at the doses used (1 to 10 nM) (FIG. 2I)
[8] = test system: MAVS; assay: MAVS oligomerization in MEFs (semi-denaturing gel electrophoresis, immunoblot, densitometry); type: cell-based, mouse
Method: 5′ triphosphate double-stranded RNA (5′-ppp-dsRNA), a synthetic ligand for RIG-I, was purchased from InVivoGen and used at a concentration of 1 μg/mL. Mitochondria-targeted antioxidant MitoQ and the mitochondria-targeted superoxide generator MitoPQ, were gifts of M. Murphy (G. F. Kelso et al., (2001) The Journal of biological chemistry 276, 4588-4596). The control reagent TPP was purchased from Sigma. Reagents were added to cells at concentrations as indicated. GOx was purchased from Sigma and added to cultured cells at a final concentration of 0.1 U/mL. Iodoacetamide was from Thermo Fisher, and used at a final concentration of 100 μM.
Cultured MEFs or human PBMCs were lysed in a sample buffer containing 2% SDS and insoluble cell fragments were removed by centrifugation. Plasma samples derived from SLE patients were collected and stored at −20° C. until gel electrophoresis. BCA protein assay (Thermo Scientific) was used to determine protein concentrations in all samples were resolved with SDS-PAGE under denaturing conditions. Gels were transferred to PVDF membranes using a Trans-Blot Turbo Transfer System (BioRad).
(§2) SDD-AGE was performed according to a published protocol with minor modifications (Alberti et al., (2009) Cell 137, 146-158). In brief, mitochondria were resuspended in sample buffer (0.5×TBE, 10% glycerol, 2% SDS, and 0.0025% bromophenol blue) and loaded onto a vertical 1.5% agarose gel. After electrophoresis in the running buffer (1×TBE and 0.1% SDS) for 35 min with a constant voltage of 75 V at 4° C., proteins were transferred to PVDF membranes using a Trans-Blot Turbo Transfer System (BioRad) for immunoblotting.
PVDF membranes were blocked in 5% solution of nonfat powdered milk in Tris-buffered saline. Antibodies used were specific for MAVS and Actin (Santa Cruz); RIPK1 and TRAF2 (BD Biosciences); TANK, TRADD, RIG-I, and GAPDH (Cell Signaling); MDAS and COX4 (Abcam), Alexa 488 (Life Technologies), and IRF3 (Thermo Fisher), respectively. Immunoreactive proteins were visualized using HRP-labeled conjugates (Jackson Immuno Research) and developed using Clarity Western ECL substrate (Biorad). Chemiluminescence was detected and recorded using a Biorad Chemidoc instrument. Densitometric measurements were performed in Image Lab image acquisition and analysis software (Biorad).

[9] = test system: MAVS; assay: MAVS oligomerization in human PBMC and plasma (semi-denaturing agarose gel electrophoresis); type: cell-based
Method: MAVS-deficient and matching WT MEFs, gift of Z. J. Chen (Z. J. Chen et al. (2005) Cell 122, 669-682), were maintained in Dulbecco's modified Eagle's medium (DMEM) (Hyclone), supplemented with 10% heat-inactivated fetal calf serum (FCS) (Hyclone), 100 mM L-glutamine (Cellgro Mediatech), and 10,000 units/mL penicillin/10 mg/mL streptomycin sulfate (Life Technologies). C57BL6 or B6; 129-Mavstm1Zjc/J mice (The Jackson Laboratory, Bar Harbor, Me.) were maintained at the University of Vermont under a protocol approved by the Institutional Animal Care and Use Committee. Murine BMDCs were prepared as described by Inaba et al. (K. Inaba et al., (1992) Journal of Experimental Medicine 176, 1693-1702). In brief, cells derived from femur bone marrow were cultured at a density of 5×10^5/mL in 10-cm plates in RPMI 1640 (HyClone), supplemented with 5% heat-inactivated FCS, 100 mmol L-glutamine, 100 mmol sodium pyruvate, 10,000 units/mL penicillin/10 mg/mL streptomycin sulfate, 5×10^−5 mol 2-mercaptoethanol (Sigma, St. Louis, Mo.), and 10 μg/mL GM-CSF (Life Technologies). Human subjects were enrolled under a protocol approved by the University of Vermont Institutional Review Board. Samples from 17 SLE patients fulfilling the American College of Rheumatology diagnostic criteria were studied (E. M. Tan et al., (1982) Arthritis and Rheumatism 25, 1271-1277). 16 out of 17 patients were female, and the age of study participants was 47±3. The disease activity was assessed by the SLE disease activity index (SLEDAI) scores, ranging from 0 to 10 (C. Bombardier et al., (1992) Arthritis and Rheumatism 35, 630-640). Upon informed consent, primary human PBMCs were obtained from heparinized whole-blood samples from SLE patients. Control PBMCs were generated from age-, sex-, and ethnicity-matched healthy subjects. PBMCs were isolated using standard Ficoll gradient centrifugation as previously described (R. Mallone et al., (2011) Clin. and Exp. Immunol. 163, 33-49). Cells were either used immediately to prepare lysates for immunoblotting or cultured at a density of 5×10^5/mL in a 12-well culture plate with RPMI 1640 (HyClone), supplemented with 5% heat-inactivated FCS, 100 mmol L-glutamine, 100 mmol sodium pyruvate, and 10,000 units/mL penicillin/10 mg/mL streptomycin sulfate. Enriched monocytes from PBMCs were used to prepare hDCs using negative magnetic bead selection (Miltenyi), and were subsequently cultivated for 6 d in 10 μg/mL GM-CSF and 500 U/mL IL-4. All cells were maintained in a humidified chamber at 37° C. and 5% CO2.
as §2
PVDF membranes were blocked in 5% solution of nonfat powdered milk in Tris-buffered saline. Antibodies used were specific for MAVS and Actin (Santa Cruz); RIPK1 and TRAF2 (BD Biosciences); TANK, TRADD, RIG-I, and GAPDH (Cell Signaling); MDAS and COX4 (Abcam), Alexa 488 (Life Technologies), and IRF3 (Thermo Fisher), respectively. […] Chemiluminescence was detected and recorded using a Biorad Chemidoc instrument. […]

[10] = Total thiol concentration of PBMC and plasma homogenates; set-up: species or system human
[11] = biological target: T1, MAVS oligomers (Homo sapiens, UniProt Q7Z434); assay: Membrane lipid-strip blot: interaction of lipids with MAVS oligomers isolated from SLE patients; type: binding; conditions: lipid strips exposed to 1 μg/ml MAVS oligomer from SLE patients (FIG. 15B)
T1 construct: The strips were exposed to 1 μg/ml of MAVS oligomer isolated from SLE patients; from tissue; host or cells: SLE patient material, immunoprecipitated with anti-MAVS antibody on protein G magnetic beads
Method: To assess MAVS oligomer interaction a plate coated with anti-phospholipid antibody was prepared and was later was saturated with purified CL. The same plate was exposed to purified and Alx488 labeled MAVS oligomers from mock or GOx treated healthy controls, or from SLE patients as previously published [Szeto, H. H., Br J Pharmacol, 2014. 171(8): p. 2029-50]. Following washing, fluorescence of captured MAVS oligomers was measured. As a control we used recombinant, purified and Alx488 labeled MAVS monomers. Results are shown in FIG. 15A with data shown as mean±SEM, with results representative of two experiments. […] Tests were performed on membrane lipid-strips (Echelon Biosciences). The strips were exposed to 1 μg/ml of MAVS oligomer isolated from SLE patients. The strips were washed with mild detergent and treated with phospholipase A2 (PLA2).

T1 sequence (Q7Z434 whole entry): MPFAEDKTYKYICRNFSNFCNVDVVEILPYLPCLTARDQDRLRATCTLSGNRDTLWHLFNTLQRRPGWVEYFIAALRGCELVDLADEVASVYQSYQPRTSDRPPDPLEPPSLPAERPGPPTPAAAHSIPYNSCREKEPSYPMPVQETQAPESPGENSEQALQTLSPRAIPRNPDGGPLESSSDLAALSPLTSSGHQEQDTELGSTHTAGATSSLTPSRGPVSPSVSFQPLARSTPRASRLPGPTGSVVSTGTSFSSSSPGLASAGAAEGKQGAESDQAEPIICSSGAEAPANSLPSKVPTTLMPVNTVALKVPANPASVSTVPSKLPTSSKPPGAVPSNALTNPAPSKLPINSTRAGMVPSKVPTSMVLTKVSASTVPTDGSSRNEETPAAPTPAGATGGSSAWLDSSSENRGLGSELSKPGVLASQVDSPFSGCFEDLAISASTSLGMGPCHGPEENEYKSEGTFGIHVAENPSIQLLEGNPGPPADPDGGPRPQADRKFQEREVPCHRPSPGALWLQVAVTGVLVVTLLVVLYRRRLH

Molecule: 5′ triphosphate double-stranded RNA [5′-ppp-RNA]
- ROS after transfection ([1]; MAVS-WT MEFs, initial 12 h, 1 μg 5′-ppp-RNA (FIG. 1A)): increased
- ΔΨm induced by the substance ([2]; MAVS-WT MEFs, not observed in MAVS-KO (FIG. 1B, 2D)): increased
- level of phosphorylated Drp1 at mitochondria after MAVS activation [3]: lower levels of phosphorylated Drp1 at mitochondria
- basal OCR versus mock-treated cells [4]: significantly lower basal OCR

Molecule: N=c1ccc2c(-c3ccc(C(=O)O)cc3C(=O)O)c3ccc(N)c(S(=O)(=O)O)c3oc-2c1S(=O)(=O)O [Alx488, Alexa Fluor 488]
- MAVS expression or oligomerization with free fluorophore [5]: did not lead to increased MAVS expression or oligomerization

Molecule: C[n+]1ccc(-c2cc[n+](CCCCCCCCCC[P+](c3ccccc3)(c3ccccc3)c3ccccc3)cc2)cc1.[I-].[I-].[I-] [MitoPQ, MitoParaquat]
- IFN-I secretion induced by the substance ([6]; not observed in MAVS-KO (FIG. 2E, 2J)): significant increase
- IL-6 secretion induced by the substance ([6]; not observed in MAVS-KO (FIG. 2F, 2K)): significant increase
- superoxide within mitochondria / ROS ([1]; MEFs, MitoPQ 1 to 10 nM (FIG. 2G)): increased amount of superoxide within mitochondria
- cell death [7]: without causing significant cell death
- induction of MAVS oligomerization without viral infection ([8]; MEFs, substance alone (MitoPQ 1 to 10 nM, FIG. 2H; GOx, FIG. 2A)): MAVS oligomerization

Molecule: CCCCCCCCCC[P+](c1ccccc1)(c1ccccc1)c1ccccc1 [dTPP]
- MAVS oligomerization after pretreatment ([8]; MEFs pretreated (100 μM) before GOx or SINV (FIG. 3A)): did not demonstrate reversal of MAVS oligomerization

Molecule: NC(=O)CI [iodoacetamide]
- MAVS oligomers with thiol blocking during homogenization ([9]; cells homogenized in buffer with 100 μM iodoacetamide after GOx or SINV (FIG. 9)): did not result in a decrease in MAVS oligomers
- detection of MAVS oligomers in SLE cells or plasma with thiol blocking ([9]; iodoacetamide added to SLE PBMC and plasma samples (FIG. 9)): did not decrease the detection of MAVS oligomers
- reduction of total thiol concentration, PBMCs ([10]; PBMC homogenates (FIG. 9)): 80%
- reduction of total thiol concentration, plasma ([10]; plasma homogenates (FIG. 9)): 94%

Molecule: OCCS [β-Me, β-mercaptoethanol]
- mitochondrial hyperpolarization in GOx-treated cells ([2]; media supplemented with β-Me, GOx (FIG. 2D)): prevented mitochondrial hyperpolarization
- GOx-induced MAVS oligomerization in PBMCs after pretreatment ([9]; healthy-donor PBMCs pretreated with MitoQ or grown in presence of β-Me, then GOx (FIG. 4A)): MAVS oligomerization did not occur
- reversal of GOx-induced MAVS oligomerization ([8]; cell media supplemented with β-Me (FIG. 2A)): reversible
- reversal of SINV-induced MAVS oligomerization ([8]; cell media supplemented with β-Me, SINV infection (FIG. 2A)): only a portion of the MAVS oligomers were reducible

Molecule: cardiolipin [CL]
- interaction with MAVS oligomers [11]: significant interaction

Source: patent publication US10967047B2, “Mitochondrial antiviral-signaling (MAVS) polypeptides and detection and use thereof” (University of Vermont and State Agricultural College, priority 2016, dated 2021)
